In the NIST ThermoML archive (doi:10.1021/je900756g):
Numbers after ± are expanded uncertainties.

Settings: Liquid; for mass density: Bellows volumetry; for vapor or sublimation pressure: Closed cell (Static) method

Question: For `F/C=C/C(F)(F)F` [trans-1,3,3,3-tetrafluoropropene], which mass density (310 K, 2000 kPa) is on record?
Answer: 1130.2 ± 3.4 kg/m3

Question: What about the mass density (310 K, 3000 kPa) of the same compound?
Answer: 1136.3 ± 3.4 kg/m3

Question: And the mass density (310 K, 4000 kPa)?
Answer: 1142.1 ± 3.4 kg/m3

Question: And the mass density (310 K, 5000 kPa)?
Answer: 1147.7 ± 3.6 kg/m3

Question: And the “vapor or sublimation pressure” value (310 K)?
Answer: 703 ± 2 kPa

Question: What about the mass density (320 K, 2000 kPa) of the same compound?
Answer: 1093.3 ± 3.2 kg/m3

Question: What about the mass density (320 K, 3000 kPa) of the same compound?
Answer: 1100.9 ± 3.2 kg/m3

Question: What about the mass density (320 K, 4000 kPa) of the same compound?
Answer: 1108 ± 3.2 kg/m3

Question: And the mass density (320 K, 5000 kPa)?
Answer: 1114.7 ± 3.4 kg/m3

Question: What about the “vapor or sublimation pressure” value (320 K) of the same compound?
Answer: 920 ± 2 kPa

Question: And the mass density (330 K, 2000 kPa)?
Answer: 1054.2 ± 3.2 kg/m3

Question: And the mass density (330 K, 3000 kPa)?
Answer: 1063.6 ± 3.4 kg/m3

Question: And the mass density (330 K, 4000 kPa)?
Answer: 1072.2 ± 3.4 kg/m3

Question: And the mass density (330 K, 5000 kPa)?
Answer: 1080 ± 3.4 kg/m3

Question: What about the “vapor or sublimation pressure” value (330 K) of the same compound?
Answer: 1183 ± 3 kPa

Question: And the mass density (340 K, 2000 kPa)?
Answer: 1008.1 ± 3 kg/m3

Question: And the mass density (340 K, 3000 kPa)?
Answer: 1021 ± 3 kg/m3

Question: What about the mass density (340 K, 4000 kPa) of the same compound?
Answer: 1032.2 ± 3.2 kg/m3

Question: What about the mass density (340 K, 5000 kPa) of the same compound?
Answer: 1042.4 ± 3.2 kg/m3

Question: And the “vapor or sublimation pressure” value (340 K)?
Answer: 1500 ± 3 kPa

Question: And the mass density (350 K, 2000 kPa)?
Answer: 953.6 ± 2.8 kg/m3

Question: And the mass density (350 K, 3000 kPa)?
Answer: 972.3 ± 3 kg/m3

Question: And the mass density (350 K, 4000 kPa)?
Answer: 987.6 ± 3 kg/m3

Question: And the mass density (350 K, 5000 kPa)?
Answer: 1000.5 ± 3.2 kg/m3

Question: What about the “vapor or sublimation pressure” value (350 K) of the same compound?
Answer: 1876 ± 3 kPa

Question: And the mass density (360 K, 3000 kPa)?
Answer: 910.5 ± 2.6 kg/m3

Question: And the mass density (360 K, 4000 kPa)?
Answer: 934.2 ± 2.8 kg/m3

Question: What about the mass density (360 K, 5000 kPa) of the same compound?
Answer: 952.9 ± 2.8 kg/m3

Question: And the “vapor or sublimation pressure” value (360 K)?
Answer: 2320 ± 4 kPa

Question: What about the mass density (370 K, 3000 kPa) of the same compound?
Answer: 821.5 ± 2.4 kg/m3

Question: What about the mass density (370 K, 4000 kPa) of the same compound?
Answer: 867.6 ± 2.6 kg/m3

Question: What about the mass density (370 K, 5000 kPa) of the same compound?
Answer: 896.7 ± 2.8 kg/m3

Question: And the “vapor or sublimation pressure” value (370 K)?
Answer: 2841 ± 5 kPa

Question: What about the “vapor or sublimation pressure” value (380 K) of the same compound?
Answer: 3458 ± 5 kPa
